The source of these data is patent US20100137373A1, “PESTICIDAL COMPOSITION COMPRISING A STR[…] AN I[…]” (priority 2007, published 2010).

Each structure is given as a SMILES string.

One experiment concerns Myzus persicae. Nature of the experiment: Myzus persicae test (cabbage leaf dip, mortality). The format is in vivo. As to conditions: foliar, 96 h, single compound, infested cabbage leaves dipped, after 4 d. The procedure: (§1) The expected efficacy of a given combination of two compounds is calculated as follows (see Colby, S. R., “Calculating Synergistic and antagonistic Responses of Herbicide Combinations”, Weeds 15, pp. 20-22, 1967):
(§2) X is the efficacy expressed in % mortality of the untreated control for test compound A at a concentration of m ppm respectively m g/ha,
(§3) Y is the efficacy expressed in % mortality of the untreated control for test compound B at a concentration of n ppm respectively n g/ha,
(§4) E is the efficacy expressed in % mortality of the untreated control using the mixture of A and B at m and n ppm respectively m and n g/ha,
(§5) If the observed insecticidal efficacy of the combination is higher than the one calculated as “E”, then the combination of the two compounds is more than additive, i.e., there is a synergistic effect.
(§6) Solvent: 7 parts by weight of dimethylformamide
(§7) Emulsifier: 2 parts by weight of alkylaryl polyglycolether
To produce a suitable preparation of active compound, 1 part by weight of active compound is mixed with the stated amount of solvent and emulsifier, and the concentrate is diluted with emulsifier-containing water to the desired concentration. […]
After the specified period of time, the mortality in % is determined. […]

The next experiment concerns Phaedon cochleariae. Nature of the experiment: Phaedon cochleariae test (cabbage leaf dip, larvae mortality). The format is in vivo. As to conditions: foliar, 96 h, single compound, dipped cabbage leaves infested with larvae, after 4 d. The procedure:
as §1, §2, §3, §4, §5, §6, §7
To produce a suitable preparation of active compound, 1 part by weight of active compound is mixed with the stated amount of solvent and emulsifier, and the concentrate is diluted with emulsifier-containing water to the desired concentration.
Cabbage leaves (Brassica oleracea) are treated by being dipped into the preparation of the active compound of the desired concentration and are infested with larvae of the mustard beetle (Phaedon cochleariae) as long as the leaves are still moist.
After the specified period of time, the mortality in % is determined. 100% means that all the beetle larvae have been killed; 0% means that none of the beetle larvae have been killed.

For orientation: mortality means the percentage killed. On to `CC1=CC(O/C=C2/C(=O)OC3c4ccccc4CC23)OC1=O` (centres unmarked) [Compound A], for which the mortality at 3e-06 ppm with Myzus persicae (0.000003 ppm) and in the experiment with Phaedon cochleariae (0.000003 ppm) was 0% each time. Besides, the mortality at 3e-05 ppm with Phaedon cochleariae (0.00003 ppm) was determined as 0%.
In the case of `O=[N+]([O-])NC1=NCCN1Cc1ccc(Cl)nc1` [Imidacloprid, reference compound], the mortality at 0.16 ppm in the experiment on Myzus persicae (0.16 ppm) turned out to be 10%. For the same compound, the mortality at 20 ppm with Phaedon cochleariae (20 ppm) is 70%.
